Here are results for 1 molecule from PMC10623271 (Heliyon, 2023).

In general, IC50 refers to the concentration at which inhibition is half-maximal.

This experiment deals with α-glucosidase from Bacillus stearothermophilus. The experiment in a line: α-glucosidase assay. Type of experiment: biochemical. Particulars: positive control, pNPG, 20 min 60 °C, pH 6.8, ± SD.

In turn, `C[C@H]1O[C@H](O[C@H]2[C@H](O)[C@@H](O)[C@@H](O[C@H]3[C@H](O)[C@@H](O)C(O)O[C@@H]3CO)O[C@@H]2CO)[C@H](O)[C@@H](O)[C@@H]1N[C@H]1C=C(CO)[C@@H](O)[C@H](O)[C@H]1O` (stereo partly shown) [Acarbose, acarbose] came in with a 50% inhibitory concentration (IC50) of 2.9 ± 0.4 nM.
